Measured values published in PubChem BioAssay (NCI).
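GI50 is the concentration that inhibits growth by half. TGI: total growth inhibition.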

Key:
Assay in all cases: NCI-60 cell line screen, 384-well format
[1] = tested on: SF-295 CNS
[2] = tested on: BT-549 breast
[3] = tested on: SN12C renal
[4] = tested on: MCF7 breast
[5] = tested on: MOLT-4 leukemia
[6] = tested on: NCI-H460 NSCLC
[7] = tested on: NCI-H522 lung
[8] = tested on: CAKI-1 renal
[9] = tested on: A549 NSCLC
[10] = tested on: K-562 leukemia
[11] = tested on: UO-31 renal
[12] = tested on: A498 renal
[13] = tested on: ACHN renal
[14] = tested on: NCI-H322M lung
[15] = tested on: HCT-116 colon
[16] = tested on: MDA-MB-231 breast
[17] = tested on: SF-539 CNS
[18] = tested on: SK-MEL-28 melanoma
[19] = tested on: SNB-75 CNS
[20] = tested on: NCI-H226 lung
[21] = tested on: LOX IMVI melanoma
[22] = tested on: SW-620 colon
[23] = tested on: SR leukemia
[24] = tested on: HOP-62 NSCLC
[25] = tested on: OVCAR-3 ovarian
[26] = tested on: KM12 colon
[27] = tested on: 786-0 renal
[28] = tested on: OVCAR-5 ovarian
[29] = tested on: MDA-MB-435 melanoma
[30] = tested on: COLO 205 colon
[31] = tested on: M14 melanoma
[32] = tested on: MDA-MB-468 breast
[33] = tested on: PC-3 prostate
[34] = tested on: CCRF-CEM leukemia
[35] = tested on: OVCAR-4 ovarian
[36] = tested on: HCT-15 colon
[37] = tested on: NCI-H23 lung
[38] = tested on: HT29 colon
[39] = tested on: OVCAR-8 ovarian
[40] = tested on: RXF 393 renal
[41] = tested on: SF-268 CNS
[42] = tested on: SNB-19 CNS
[43] = tested on: SK-OV-3 ovarian
[44] = tested on: HS 578T breast
[45] = tested on: SK-MEL-5 melanoma
[46] = tested on: UACC-257 melanoma
[47] = tested on: HL-60(TB) leukemia
[48] = tested on: U251 glioblastoma
[49] = tested on: RPMI-8226 leukemia
[50] = tested on: MALME-3M melanoma
[51] = tested on: T-47D breast
[52] = tested on: IGROV1 ovarian
[53] = tested on: HOP-92 NSCLC
[54] = tested on: EKVX NSCLC
[55] = tested on: HCC-2998 colon
[56] = tested on: NCI/ADR-RES ovarian
[57] = tested on: DU-145 prostate
[58] = tested on: TK-10 renal
[59] = tested on: UACC-62 melanoma

## CN1CCC(CNc2ccc3ncc(-c4cccc(OC(F)(F)F)c4)n3n2)CC1
[1]
  GI50: 1.45 µM
  TGI: 2.78 µM
[2]
  GI50: 1.4 µM
  TGI: 2.71 µM
[3]
  GI50: 1.55 µM
  TGI: 2.91 µM
[4]
  GI50: 1.45 µM
  TGI: 2.8 µM
[5]
  GI50: 1.31 µM
  TGI: 2.59 µM
[6]
  GI50: 1.71 µM
  TGI: 3.15 µM
[7]
  GI50: 1.56 µM
  TGI: 2.9 µM
[8]
  GI50: 1.38 µM
  TGI: 2.71 µM
[9]
  GI50: 1.72 µM
  TGI: 3.12 µM
[10]
  GI50: 1.63 µM
  TGI: 3.04 µM
[11]
  GI50: 1.66 µM
  TGI: 3.04 µM
[12]
  GI50: 1.42 µM
  TGI: 2.73 µM
[13]
  GI50: 1.59 µM
  TGI: 2.96 µM
[14]
  GI50: 1.92 µM
  TGI: 3.8 µM
[15]
  GI50: 1.59 µM
  TGI: 2.98 µM
[16]
  GI50: 1.61 µM
  TGI: 2.97 µM
[17]
  GI50: 1.53 µM
  TGI: 2.87 µM
[18]
  GI50: 1.75 µM
  TGI: 3.13 µM
[19]
  GI50: 1.5 µM
  TGI: 2.86 µM
[20]
  GI50: 1.48 µM
  TGI: 2.82 µM
[21]
  GI50: 1.74 µM
  TGI: 3.14 µM
[22]
  GI50: 1.6 µM
  TGI: 2.98 µM
[23]
  GI50: 1.25 µM
  TGI: 2.52 µM
[24]
  GI50: 1.62 µM
  TGI: 3 µM
[25]
  GI50: 1.62 µM
  TGI: 3.01 µM
[26]
  GI50: 0.375 µM
  TGI: 1.42 µM
[27]
  GI50: 1.66 µM
  TGI: 3.05 µM
[28]
  GI50: 1.61 µM
  TGI: 3.21 µM
[29]
  GI50: 1.71 µM
  TGI: 3.1 µM
[30]
  GI50: 1.79 µM
  TGI: 3.19 µM
[31]
  GI50: 1.49 µM
  TGI: 2.82 µM
[32]
  GI50: 1.1 µM
  TGI: 2.31 µM
[33]
  GI50: 1.26 µM
  TGI: 2.62 µM
[34]
  GI50: 1.8 µM
  TGI: 3.21 µM
[35]
  GI50: 1.74 µM
  TGI: 3.19 µM
[36]
  GI50: 1.58 µM
  TGI: 2.97 µM
[37]
  GI50: 1.54 µM
  TGI: 2.94 µM
[38]
  GI50: 1.66 µM
  TGI: 3.09 µM
[39]
  GI50: 1.61 µM
  TGI: 2.99 µM
[40]
  GI50: 1.35 µM
  TGI: 2.64 µM
[41]
  GI50: 1.65 µM
  TGI: 3.04 µM
[42]
  GI50: 1.74 µM
  TGI: 3.17 µM
[43]
  GI50: 1.67 µM
  TGI: 3.05 µM
[44]
  GI50: 1.59 µM
  TGI: 2.95 µM
[45]
  GI50: 1.12 µM
  TGI: 2.33 µM
[46]
  GI50: 1.62 µM
  TGI: 2.98 µM
[47]
  GI50: 1.25 µM
  TGI: 2.53 µM
[48]
  GI50: 1.81 µM
  TGI: 3.22 µM
[49]
  GI50: 1.37 µM
  TGI: 2.67 µM
[50]
  GI50: 1.56 µM
  TGI: 2.91 µM
[51]
  GI50: 1.77 µM
  TGI: 3.17 µM
[52]
  GI50: 1.55 µM
  TGI: 2.94 µM
[53]
  GI50: 1.65 µM
  TGI: 3.02 µM
[54]
  GI50: 1.48 µM
  TGI: 2.9 µM
[55]
  GI50: 1.43 µM
  TGI: 2.76 µM
[56]
  GI50: 1.62 µM
  TGI: 3.02 µM
[57]
  GI50: 2.05 µM
  TGI: 4.51 µM
[58]
  GI50: 1.7 µM
  TGI: 3.11 µM

## O=C(c1ccc(OCCN2CCCCC2)cc1)c1c(-c2ccc(O)cc2)sc2cc(O)ccc12
[59]
  GI50: 5.22 µM
  TGI: 17.3 µM
[1]
  GI50: 12.8 µM
  TGI: 25.5 µM
[2]
  GI50: 1.59 µM
  TGI: 3.74 µM
[3]
  GI50: 12.6 µM
  TGI: 25.2 µM
[4]
  TGI: 2.78 µM
[5]
  GI50: 1.8 µM
  TGI: 4.59 µM
[6]
  GI50: 8.87 µM
  TGI: 21 µM
[7]
  GI50: 7.17 µM
  TGI: 19.7 µM
[8]
  GI50: 2.15 µM
  TGI: 5.11 µM
[9]
  GI50: 4.42 µM
  TGI: 15.4 µM
[11]
  GI50: 2.59 µM
  TGI: 7.34 µM
[12]
  GI50: 2.11 µM
  TGI: 4.43 µM
[13]
  GI50: 4.02 µM
  TGI: 12.9 µM
[14]
  GI50: 1.86 µM
  TGI: 4.78 µM
[15]
  GI50: 3.39 µM
  TGI: 12.3 µM
[16]
  GI50: 2.2 µM
  TGI: 4.97 µM
[17]
  GI50: 3.27 µM
  TGI: 11.3 µM
[18]
  GI50: 2.54 µM
  TGI: 7.63 µM
[19]
  GI50: 2.69 µM
  TGI: 8.46 µM
[20]
  GI50: 3.27 µM
  TGI: 11.2 µM
[21]
  GI50: 1.84 µM
  TGI: 3.43 µM
[22]
  GI50: 12.5 µM
  TGI: 25.1 µM
[23]
  GI50: 3.15 µM
  TGI: 4.65 µM
[24]
  GI50: 3.31 µM
  TGI: 10.8 µM
[25]
  GI50: 4.33 µM
  TGI: 16.6 µM
[26]
  GI50: 4.09 µM
  TGI: 12.7 µM
[27]
  GI50: 1.55 µM
  TGI: 2.94 µM
[28]
  GI50: 5.94 µM
  TGI: 18.2 µM
[29]
  GI50: 4.38 µM
  TGI: 10.9 µM
[30]
  GI50: 17.1 µM
  TGI: 30.9 µM
[31]
  GI50: 2.09 µM
  TGI: 3.88 µM
[32]
  GI50: 3.08 µM
  TGI: 7.65 µM
[33]
  GI50: 2.17 µM
  TGI: 4.97 µM
[35]
  GI50: 8.87 µM
  TGI: 20.6 µM
[36]
  GI50: 1.26 µM
  TGI: 3.51 µM
[37]
  GI50: 3.46 µM
  TGI: 12.7 µM
[38]
  GI50: 5.05 µM
  TGI: 16.8 µM
[39]
  GI50: 4.04 µM
  TGI: 14 µM
[40]
  GI50: 2.29 µM
  TGI: 5.12 µM
[41]
  GI50: 5.08 µM
  TGI: 17.2 µM
[42]
  GI50: 11.7 µM
  TGI: 24.1 µM
[43]
  GI50: 9.94 µM
  TGI: 21.6 µM
[44]
  GI50: 2.5 µM
  TGI: 6.72 µM
[45]
  GI50: 1.49 µM
  TGI: 3.21 µM
[46]
  GI50: 1.96 µM
  TGI: 3.61 µM
[47]
  GI50: 1.83 µM
  TGI: 3.25 µM
[48]
  GI50: 4.07 µM
  TGI: 13.4 µM
[49]
  GI50: 2.78 µM
  TGI: 5.32 µM
[50]
  GI50: 1.48 µM
  TGI: 2.83 µM
[52]
  GI50: 2.75 µM
  TGI: 7.87 µM
[53]
  GI50: 2.04 µM
  TGI: 5.03 µM
[54]
  GI50: 6.23 µM
  TGI: 18.5 µM
[55]
  GI50: 3.71 µM
  TGI: 12.3 µM
[56]
  GI50: 4.4 µM
  TGI: 15.1 µM
[57]
  GI50: 10.8 µM
  TGI: 22.7 µM
[58]
  GI50: 9.63 µM
  TGI: 21.4 µM
